These results are taken from patent publication US20040202713A1, “Means and method for hormonal contraception” (priority 2001, published 2004).

The test system of series [1] is women. Description: Clinical study with dydrogesterone as progestogen-only preparation (Example 3). Format: in vivo, human. The conditions noted are these: 20 mg dydrogesterone once a day, uninterrupted for 4 months, 8 women. How it is done:
A clinical study with dydrogesterone as a progestogen-only preparation is conducted in 8 women who were selected on the basis of the criteria mentioned in Example 1. The 8 women receive a 20 mg dosage of dydrogesterone once a day, uninterruptedly during a period of 4 months.

Series [2] relates to women. Description: Clinical study in contraception, combined ethinyl estradiol/dydrogesterone regimen (Example 2). The conditions noted are these: 30 μg ethinyl estradiol + 20 mg dydrogesterone daily for 24 days, then 4 days placebo; 8 women. Format: in vivo, human. The procedure:
A clinical study in contraception is conducted in 8 women, who were selected on the basis of the criteria mentioned in Example 1, using 30 μg ethinyl estradiol and 20 mg dydrogesterone. The aforementioned dose is administered on a daily basis during 24 days, followed by a hormone-free period placebo's) of 4 days.

In series [3] the test system is young healthy women. Description: Clinical study in contraception, sequential regimen (Example 1): vaginal ultrasonography, endogenous hormones, bleeding pattern. Format: in vivo, human. The conditions noted are these: 2 mg 17beta-estradiol days 1-14, then 10 mg dydrogesterone + 2 mg 17beta-estradiol days 15-28, single cycle. The text has this: Women who participated ill the study described in this example were all selected on the basis that they were users of ‘high’ dose monophasic ethinyl estradiol-containing combined oral contraceptives. The reasons for applying this selection criterion was that there is a dose relationship between follicular development and ethinyl estradiol whether given alone or in combination with a progestogen, i.e. less follicular development in the presence of the higher dose. Participation of the females involved in the study started at a moment of (almost) complete suppression of follicular development. This condition is not met if a person has their first day of bleeding in a natural cycle, after a tablet-free interval, or immediately after a low-dose combined oral contraceptive. A clinical study in contraception was conducted in 9 young healthy women who previously used a monophasic oral contraceptive pill with at least 30 microgram of ethinyl estradiol. The women were administered 2 mg 17beta-estradiol during days 1-14 of the cycle. From days. 15 to 28 of the cycle 10 mg dydrogesterone combined with 2 mg 17beta-estradiol was administered. The participants were followed by vaginal ultrasonography and blood sampling for endogenous hormones to assess ovarian function (ovulation-inhibition). Vaginal bleeding pattern and feeling of well being were scored by the participants.

For series [4] the following is noted: compared with commercially used synthetic progestogens; cited from earlier work.
Series [5] concerns humans. The conditions noted are these: reported by Claassen et al., Acta Endocrinologica (1967); cited from earlier work.
For series [6] the following is noted: hormone replacement therapy with 17beta-estradiol dydrogesterone (Grisar et al. 1999); cited from earlier work.

Regarding `CC(=O)[C@H]1CC[C@H]2[C@@H]3C=CC4=CC(=O)CC[C@@]4(C)[C@@H]3CC[C@]12C` [dydrogesterone, 9β,10α-pregna-4,6-diene-3,20-dione], in series [1], the Irregular bleeding entry is recorded as “some unpredictable irregular bleeding”, the Menstrual flow entry is on record as “reduction of the usual menstrual flow” and the Ovulation inhibition entry was “Ovulation is inhibited”. In series [2], the Ovulation inhibition result is recorded as “ovulation inhibition is achieved” and the Withdrawal bleeding result was “Regular withdrawal bleeding occurs in all women”. Further, the “Ovulation inhibition (subjects with inhibition)” value in series [3] (9 women) is 7 of the 9. Further, the Intermenstrual bleeding result in series [3] (scored by participants) is listed as “No intermenstrual bleeding was observed”. Further, in series [4], the “Estrogenic, glucocorticoid, anabolic or androgenic properties” value is “does not exhibit estrogenic, glucocorticoid, anabolic or androgenic properties”. For the same compound, the “Ovulation inhibition in humans” value in series [5] is listed as “does not inhibit ovulation in humans”. Also, in series [6], the “Adverse effects on blood pressure” value is reported as “no adverse effects on blood pressure”.
